From US8034908B2, “Glycolipids and synthetic method thereof as well as their synthetic intermediates, and synthetic method thereof” (Japan as Represented by President of National Center of …, priority 2003, dated 2011)

Experiments:
Splenocytes = test: Test of production of cytokines by glycolipid derivative (in vitro), mouse splenocytes, ELISA; format: cell-based, C57BL/6 mice; details: for IFN-γ / IL-4: glycolipid 100 ng/ml, 72 hours culture, culture supernatant, ELISA
Protocol: Test of Production of Cytokines by Glycolipid Derivative (In Vitro)
Splenocytes were prepared from the spleens of C57BL/6 mice (6 to 8 weeks old, female) and suspended in a RPMI1640 medium (purchased by Nakarai) containing 10% fetal bovine serum (purchased by GIBCO), 5×10-^5M 2-mercaptoethanol (purchased by GIBCO), 1 mM pyruvate (purchased by SIGMA), and 25 mM HEPE (purchased by SIGMA). These were seeded on a 96-well flat bottom plate (purchased by IWAKI) in an amount of 5×10e5 cells/well and a glycolipid derivative was added to each at a final concentration of 100 ng/ml. The results were cultured at 37° C. in the presence of 5% CO2 for 72 hours, then the culture supernatent was collected. The concentration of the IL-4 and IFN-γ in the culture supernatent were measured by ELISA (BD Pharmingen EIA Kit) (Table 2).

NKT cells = details: cited from earlier work
[1] = system: mouse experimental autoimmunological encephalomyelitis (EAE) model; details: oral administration; cited from earlier work

## CCCCCCCCCCCCCCCCCCCCCCC(=O)N[C@@H](COC1OC(CO)C(O)C(O)C1O)[C@H](O)[C@H](O)CCCC (stereo partly drawn) [Compound 110, 2-tricosanoylamino-1-O-α-D-galactopyranosyl-D-ribo-1,3,4-octanetriol]
Splenocytes
  IFN-γ: 10614 pg/mL
  IL-4: 226 pg/mL

## CCCCCCCCCCCCCCCCCCCCCC(=O)N[C@@H](COC1OC(CO)C(O)C(O)C1O)[C@H](O)[C@H](O)CCC (stereo partly drawn) [Compound 111, 2-docasanoylamino-1-O-α-D-galactopyranosyl-D-ribo-1,3,4-heptanetriol]
Splenocytes
  IFN-γ: 7413 pg/mL
  IL-4: 256 pg/mL

## CCCCCCCCCCCCCCCCCCCCCCC(=O)N[C@@H](COC1OC(CO)C(O)C(O)C1O)[C@H](O)[C@H](O)CC (stereo partly drawn) [Compound 112, 2-tricosanoylamino-1-O-α-D-galactopyranosyl-D-ribo-1,3,4-hexanetriol]
Splenocytes
  IFN-γ: 5832 pg/mL
  IL-4: 237 pg/mL

## CCCCCCCCCCCCCCCCCCCCCC(=O)N[C@@H](COC1OC(CO)C(O)C(O)C1O)[C@H](O)[C@H](O)CCCCCC (stereo partly drawn) [Compound 113, 2-docasanoylamino-1-O-α-D-galactopyranosyl-D-ribo-1,3,4-decanetriol]
Splenocytes
  IFN-γ: 7967 pg/mL
  IL-4: 251 pg/mL

## CCCCCCCCCCCCCCCCCCCCCCC(=O)N[C@@H](CO[C@H]1O[C@H](CO)[C@H](O)[C@H](O)[C@H]1O)[C@H](O)[C@H](O)CCCCCC [Compound 114, 2-tricosanoylamino-1-O-α-D-galactopyranosyl-D-ribo-1,3,4-decanetriol]
Splenocytes
  IFN-γ: 8067 pg/mL
  IL-4: 225 pg/mL

## CCCCCCCCCCCCCCCCCCCCCCCC(=O)N[C@@H](COC1OC(CO)C(O)C(O)C1O)[C@H](O)[C@H](O)CCc1ccccc1 (stereo partly drawn) [Compound 115, 6-phenyl-2-tetracosanoylamino-1-O-α-D-galactopyranosyl-D-ribo-1,3,4-hexanetriol]
Splenocytes
  IFN-γ: 2481 pg/mL
  IL-4: 137 pg/mL

## CCCCCCCCCCCCCCCCCCCCCCCC(=O)N[C@@H](COC1OC(CO)C(O)C(O)C1O)[C@H](O)[C@H](O)CC1CCCC1 (stereo partly drawn) [Compound 116, 5-cyclopentyl-2-tetracosanoylamino-1-O-α-D-galactopyranosyl-D-ribo-1,3,4-pentanetriol]
Splenocytes
  IFN-γ: 5268 pg/mL
  IL-4: 226 pg/mL

## CCCCCCCCCCCCCCCCCCCCCCCC(=O)N[C@@H](COC1OC(CO)C(O)C(O)C1O)[C@H](O)[C@H](O)Cc1ccc(C)cc1 (stereo partly drawn) [Compound 117, 5-(4-methylphenyl)-2-tetracosanoylamino-1-O-α-D-galactopyranosyl-D-ribo-1,3,4-pentanetriol]
Splenocytes
  IFN-γ: 5485 pg/mL
  IL-4: 181 pg/mL

## CCCCCCCCCCCCCCOc1ccc(CCCCC(=O)N[C@@H](COC2OC(CO)C(O)C(O)C2O)[C@H](O)[C@H](O)CCCCC)cc1 (some centres unmarked) [Compound 127]
Splenocytes
  IFN-γ: 2506 pg/mL
  IL-4: 159 pg/mL

## CCCCCCCCCCCCCCCCCCCCCCCC(=O)N[C@@H](CO[C@H]1O[C@H](CO)[C@H](O)[C@H](O)[C@H]1O)[C@H](O)[C@H](O)CCCCC.O [Compound 129, 2-tetracosanoylamino-1-O-α-D-galactopyranosyl-D-ribo-1,3,4-nonanetriol 1-hydrate]
Splenocytes
  IFN-γ: 7179 pg/mL
  IL-4: 232 pg/mL

## CCCCCCCCCCCCCCCCCCCCCCCC(=O)N[C@@H](COC1OC(CO)C(O)C(O)C1O)[C@H](O)[C@H](O)CCCCC (some centres unmarked) [OCH]
NKT cells
  Cytokines produced by NKT cells (in words): more selectively promotes the production of IL-4
[1]
  Effect in EAE model (in words): effected in oral administration

## CCCCCCCCCCCCCCCCCCCCCCCCCC(=O)N[C@@H](CO[C@H]1O[C@H](CO)[C@H](O)[C@H](O)[C@H]1O)[C@H](O)[C@H](O)CCCCCCCCCCCCCC [α-Galcer, (2S,3S,4R)-1-O-(α-D-galactosyl)-2-(N-hexacosanoylamino)-1,3,4-octadecanetriol, reference compound]
NKT cells
  Cytokines produced by NKT cells (in words): causes NKT cells to produce IFN-γ and IL-4
Splenocytes; compared with α-GalCer, Table 2
  IFN-γ producing activity (in words): IFN-γ was produced remarkably dominantly
Splenocytes
  IFN-γ: 21900 pg/mL
  IL-4: 201 pg/mL
